Data set [1] relates to ZDF rats. Nature of the data set: Intraperitoneal glucose tolerance test (IPGTT) in ZDF rats (exendin-4). It is filed as in vivo, rat. The following applies: subcutaneous injection. The text has this:
After an overnight fast, ZDF rats were given a glucose challenge by intraperitoneal injection (IPGTT).

The nature of data set [2]: Sumatriptan pharmacokinetics in female Sprague Dawley rats. The following applies: rat, in vivo, 0.358 mg.
Data set [3] deals with Male ZDF rats. Nature of the data set: Cumulative food consumption in male ZDF rats (oxyntomodulin). It is filed as in vivo, rat. The following applies: 30% oxyntomodulin/FDKP powder by pulmonary insufflation, fasted ZDF rats.
Experimental: Male ZDF rats (10/group) were assigned to one of four groups.
Rats were allowed to eat after receiving the experimental dose. A predetermined amount of food was given to the rats and the amount of food the rats consumed was measured at various times after the start of the experiment.
The subject of data set [4] is Female ZDF rats. Description: Food consumption in female ZDF rats (PYY). The following applies: Group 1: 0.6 mg IV. It is filed as in vivo, rat.
Text: (§1) Pharmacokinetic and pharmacodynamic studies: Female ZDF rats were used in these experiments and divided into 7 groups; five rats were assigned to each group, except for Group 1 which had 3 rats.
Data set [5] has as its system Female ZDF rats. Nature of the data set: Blood glucose in female ZDF rats (PYY). It is filed as in vivo, rat. The following applies: Group 1: PYY IV.
Text: as §1
The test system of data set [6] is healthy adult male subjects. Nature of the data set: Phase 1a clinical trial: insulin, glucose and glucagon response after inhaled GLP-1. Type of data set: in vivo, human. As for the experimental part: GLP-1/FDKP inhalation powder was administered using the MedTone® Inhaler device, previously tested. The experiments were designed to identify the safety and tolerability of various doses of GLP-1/FDKP inhalation powder by pulmonary inhalation.
Dropouts were not replaced. These dosages assumed a body mass of 70 kg.

Data set [7] relates to patients with Type 2 diabetes. Nature of the data set: Phase 1 clinical trial of GLP-1/FDKP inhalation powder in fasted Type 2 diabetes patients: serum glucose. Type of data set: in vivo, human. The following applies: 1.5 mg GLP-1 inhaled; attained by the 30 min time point. On the procedure: […]. These studies were conducted according to Example 1 and as described herein. […]. No. 11/735,957, which disclosure is incorporated herein by reference. […].
[…]. The serum glucose levels were analyzed for each sample.

Data set [8] relates to patients diagnosed with type 2 diabetes. Description: Meal challenge study in type 2 diabetes patients: GLP-1 levels, insulin, glucose, gastric emptying. Type of data set: in vivo, human. On the procedure: Experimental Design: The study was divided into two periods and enrolled 20 patients diagnosed with type 2 diabetes ranging in age from 20 to 64 years of age. […] Period 2 was performed after completion of Period 1. […] The results of this study are depicted in FIGS. 18-20.

What is called bioavailability is dose-corrected exposure relative to a reference, in per cent. A high value points to much systemic uptake.

exenatide: the “time blood glucose was significantly lowered following IPGTT versus air control” value in data set [1] was 30 min.
As to `CNS(=O)(=O)Cc1ccc2[nH]cc(CCN(C)C)c2c1` [Sumatriptan, sumatriptan], the bioavailability amounted to 100% in data set [2] (iv) and 36.4% in data set [2] (sc).
Regarding oxyntomodulin, in data set [3], the “time after dosing with significantly less food consumed than control rats” value is “up to 6 hr”.
As for peptide YY(3-36) [PYY], the food consumption result in data set [4] is reported as “relatively effective in reducing food consumption”. Besides, the “time after dosing up to which blood glucose level was lower than in the other rats” value in data set [5] is recorded as “about 15 min”.
Regarding glucagon-like peptide 1 [GLP-1], the “decrease in plasma glucose in two of the six subjects” value in data set [6] (1.5 mg GLP-1 inhaled) is recorded as “more than 1.5 mol/L”. Also, in data set [6] (1.5 mg GLP-1 inhaled, reduced from 85), the “mean fasting plasma glucose 20 min after dosing” value is 70 mg/dL. In addition, the “largest decrease in plasma glucagon” value in data set [6] (1.5 mg dose group) is recorded as “approximately 2.5 pmol/L”. Besides, in data set [6] (after dosing, inhaled GLP-1), the “time of maximum change in plasma glucagon” value came out at 12 min. Further, in data set [6] (inhaled GLP-1), the “peak plasma insulin levels in one subject” value is listed as “exceeded 700 pmol/L”. The “peak plasma insulin response in most subjects” value in data set [6] (inhaled GLP-1, dose groups 0.05-1.5 mg) fell in the range of 200 to 400 pmol/L. Besides, the mean glucose drop result in data set [7] is “approximately 1 mmol/L”. Besides, the insulin response entry in data set [8] (GLP-1 dry powder comprising FDKP, fed and fasted groups) is given as “more significant”. Moreover, in data set [8] (GLP-1 dry powder formulation), the “blood glucose after meal challenge” value is “delayed rise in blood glucose and reduced overall exposure (AUC) to glucose”.

Source of the values: patent US8785396B2, “Method and composition for treating migraines” (Mannkind Corporation, priority 2007, dated 2014).
